Experimental data reported in patent US20260193278A1, “NOVEL PHTHALOCYANINE COMPOUNDS AND THE USE THEREOF FOR THE TREATMENT OF DISEASES” (RHODES UNIVERSITY, priority 2022, published 2026).

Assays:
Format in all cases: cell-based
[1] = test system: S. aureus; assay: Dark toxicity against S. aureus, concentration study at 0 min (CFU counting); conditions: for Staph log CFU/ml (logarithmic reduction value) / Staph μM (concentration corresponding to the logarithmic reduction): in the dark, at 0 min; for Staph log CFU/ml (logarithmic reduction value): at the concentration of the μM column; for Staph μM (concentration corresponding to the logarithmic reduction): range tested 0-10 μM
Experimental: (§1) 500 μM stock solutions of the samples were prepared in ultra-pure water (5% DMSO) and used at different concentrations in the biological assays.
(§2) Two bacterial strains were used for the PACT studies; S. aureus as a gram-(+) bacterium and E. coli as a gram-(−) negative bacterium. Stock cultures were grown aerobically in 6 mL of nutrient broth incubated at 37° C. on a rotary shaker (~200 rpm) to obtain bacteria cultures. The incubation was maintained until the optical density of the culture at 600 nm was determined to be between 0.6 and 0.8. The resulting bacterial solution was centrifuged to remove the broth, and bacterial cells were washed three times with PBS. The solution of the bacteria was prepared by diluting with PBS to obtain […] bacteria solutions corresponding to ~10^9 and ~10^8 colony forming units (CFU)/mL, respectively.
(§3) The bacteria/photosensitizer mixtures were incubated in an oven equipped with a shaker for 30 min in the dark at 37° C. before plating. 100 μL of solution was taken from the suspension and was immediately inoculated on agar plates to determine the activity at 0 min without treatment. The number of colonies was then counted on each plate after 18 h of incubation at 37° C. Control treatments were performed in the absence of photosensitizer. All experiments were carried out three times. The data for CFU/mL were converted to the logarithmic form.

[2] = test system: E. coli; assay: Dark toxicity against E. coli, concentration study at 0 min (CFU counting); conditions: in the dark; for Ecoli log CFU/ml (logarithmic reduction value): at the concentration of the μM column; for Ecoli μM (concentration corresponding to the logarithmic reduction): range tested 0-15 μM
Experimental: as §1, §2, §3

[3] = test system: MCF-7 (human breast adenocarcinoma) cells; assay: In vitro dark cytotoxicity, MCF-7 cells (anticancer studies); conditions: MCF-7, dark; for Min. Death conc. / Cell death: 24 h; for Cell death: at the Min. Death conc.
Experimental: MCF-7 (human breast adenocarcinoma) cells were cultured in Dulbecco's modified Eagle's medium-10% fetal bovine serum (DMEM-FBS) and PSA (penicillin/streptomycin/Amphotericin B) at 37° C. in an incubator (5% CO2) in 75 cm^2 vented flasks. The cultures were grown as a monolayer. The growth cells were transferred to well plates by trypsinizing with 0.25% trypsin-EDTA. The Pc stock concentrations were prepared by separately dissolving them in DMSO (1%) and diluting in water and the Pc gradient concentration was prepared by taking known aliquots from the stock and finally made up to marked volume with supplemented media with phenol red.
It was studied from […] both in the dark. 100 μL each of the newly prepared gradient Pcs concentration of 0 μg/mL (control), 5 μg/mL, 10 μg/mL, 20 μg/mL, 40 μg/mL, 60 μg/mL 80 μg/mL, 100 μg/mL and 120 μg/mL were administered on the incubated seeded cells. The 96 well cell culture plates containing the cells and the Pcs were incubated at 37° C. and 5% CO2 in the dark for 24 h. After 24 h treatment, the wells were rinsed with 100 μL DPBS. Cell survival was expressed as percentage of control cells (cells without Pcs). Post treatment cell viability was measured using the cell proliferation […] reagent (WST-1 assay) on a Synergy 2 multi-mode microplate reader (BioTek®) at a wavelength of 450 nm according to the following equation 1.

| Compound | Staph log CFU/ml (logarithmic reduction value) [1] [log CFU/ml] | Staph μM (concentration corresponding to the logarithmic reduction) [1] [μM] | Ecoli log CFU/ml (logarithmic reduction value) [2] [log CFU/ml] | Ecoli μM (concentration corresponding to the logarithmic reduction) [2] [μM] | Min. Death conc. [3] [µM] | Cell death [3] [%] | destruction of bacteria (FIG. 2) ([1]; at 0.5 μM) | log reduction (dark toxicity) ([1]; dark, 0 min, at 0.5-10 μM) | optimal concentration to kill the cancer cells [3] [µM] | cancer cells killed at the optimal concentration ([3]; at the optimal concentration) [%] |
| --- | --- | --- | --- | --- | --- | --- | --- | --- | --- | --- |
| C[n+]1c(-c2ccc(Oc3ccc4c(c3)C3=Nc5c6ccc(Oc7ccc(-c8[nH]c9ccc(Cl)cc9[n+]8C)cc7)cc6c6[n]5[Cu][n]5c(c7ccc(Oc8ccc(-c9[nH]c%10ccc(Cl)cc%10[n+]9C)cc8)cc7c5=NC5=NC(=N6)c6cc(Oc7ccc(-c8[nH]c9ccc(Cl)cc9[n+]8C)cc7)ccc65)=NC4=N3)cc2)[nH]c2ccc(Cl)cc21.[I-].[I-].[I-].[I-] [Compound 244] | 9.24 | 10 | 8.79 | 15 | 80 | 90.8 | – | – | – | – |
| C[n+]1c(-c2ccc(Oc3ccc4c(c3)C3=Nc5c6ccc(Oc7ccc(-c8[nH]c9cc(Br)cc(Cl)c9[n+]8C)cc7)cc6c6[n]5[Co][n]5c(c7ccc(Oc8ccc(-c9[nH]c%10cc(Br)cc(Cl)c%10[n+]9C)cc8)cc7c5=NC5=NC(=N6)c6cc(Oc7ccc(-c8[nH]c9cc(Br)cc(Cl)c9[n+]8C)cc7)ccc65)=NC4=N3)cc2)[nH]c2cc(Br)cc(Cl)c21.[I-].[I-].[I-].[I-] [Compound 234] | 9.25 | 0.5 | 8.79 | 2.5 | 60 | 90.4 | – | – | – | – |
| C[n+]1c(-c2ccc(Oc3ccc4c(c3)C3=Nc5c6ccc(Oc7ccc(-c8[nH]c9cc(Cl)cc(Cl)c9[n+]8C)cc7)cc6c6[n]5[Co][n]5c(c7ccc(Oc8ccc(-c9[nH]c%10cc(Cl)cc(Cl)c%10[n+]9C)cc8)cc7c5=NC5=NC(=N6)c6cc(Oc7ccc(-c8[nH]c9cc(Cl)cc(Cl)c9[n+]8C)cc7)ccc65)=NC4=N3)cc2)[nH]c2cc(Cl)cc(Cl)c21.[I-].[I-].[I-].[I-] [Compound 200] | 9.61 | 0.5 | 8.79 | 1 | 40 | 80.9 | complete destruction | 9.63 | 40 | 80.9 |
| C[n+]1c(-c2ccc(Oc3ccc4c(c3)C3=Nc5c6ccc(Oc7ccc(-c8[nH]c9cc(F)cc(Br)c9[n+]8C)cc7)cc6c6[n]5[Cu][n]5c(c7ccc(Oc8ccc(-c9[nH]c%10cc(F)cc(Br)c%10[n+]9C)cc8)cc7c5=NC5=NC(=N6)c6cc(Oc7ccc(-c8[nH]c9cc(F)cc(Br)c9[n+]8C)cc7)ccc65)=NC4=N3)cc2)[nH]c2cc(F)cc(Br)c21.[I-].[I-].[I-].[I-] [Compound 231] | 9.25 | 0.5 | 8.79 | 12.5 | 5 | 56.08 | – | – | – | – |
| C[n+]1c(-c2ccc(Oc3ccc4c(c3)C3=Nc5c6ccc(Oc7ccc(-c8[nH]c9ccc(Cl)cc9[n+]8C)cc7)cc6c6[n]5[Zn][n]5c(c7ccc(Oc8ccc(-c9[nH]c%10ccc(Cl)cc%10[n+]9C)cc8)cc7c5=NC5=NC(=N6)c6cc(Oc7ccc(-c8[nH]c9ccc(Cl)cc9[n+]8C)cc7)ccc65)=NC4=N3)cc2)[nH]c2ccc(Cl)cc21.[I-].[I-].[I-].[I-] [Compound 242] | 9.24 | 0.5 | 8.79 | 2.5 | 120 | 49.8 | – | – | – | – |
| C[n+]1c(-c2ccc(Oc3ccc4c(c3)C3=Nc5c6ccc(Oc7ccc(-c8[nH]c9cc(F)cc(Br)c9[n+]8C)cc7)cc6c6[n]5[Zn][n]5c(c7ccc(Oc8ccc(-c9[nH]c%10cc(F)cc(Br)c%10[n+]9C)cc8)cc7c5=NC5=NC(=N6)c6cc(Oc7ccc(-c8[nH]c9cc(F)cc(Br)c9[n+]8C)cc7)ccc65)=NC4=N3)cc2)[nH]c2cc(F)cc(Br)c21.[I-].[I-].[I-].[I-] [Compound 229] | 9.25 | 0.5 | 8.79 | 10 | 10 | 39.4 | – | – | – | – |
| C[n+]1c(-c2ccc(Oc3ccc4c(c3)C3=Nc5c6ccc(Oc7ccc(-c8[nH]c9cc(Cl)c(Cl)cc9[n+]8C)cc7)cc6c6[n]5[Zn][n]5c(c7ccc(Oc8ccc(-c9[nH]c%10cc(Cl)c(Cl)cc%10[n+]9C)cc8)cc7c5=NC5=NC(=N6)c6cc(Oc7ccc(-c8[nH]c9cc(Cl)c(Cl)cc9[n+]8C)cc7)ccc65)=NC4=N3)cc2)[nH]c2cc(Cl)c(Cl)cc21.[I-].[I-].[I-].[I-] [Compound 207] | 9.31 | 4 | 8.79 | 2.5 | 120 | 38.3 | – | – | – | – |
| Tetrakis [4-(4-(5-bromo-1H-benzo[d]imidazol-2-yl)phenoxy phthalocyaninato] copper(II) tetraiodide [Compound 219] | 9.15 | 10 | 8.78 | 12.5 | 10 | 36.9 | – | – | – | – |
| C[n+]1c(-c2ccc(Oc3ccc4c(c3)C3=Nc5c6ccc(Oc7ccc(-c8[nH]c9cc(Cl)c(Cl)cc9[n+]8C)cc7)cc6c6[n]5[Co][n]5c(c7ccc(Oc8ccc(-c9[nH]c%10cc(Cl)c(Cl)cc%10[n+]9C)cc8)cc7c5=NC5=NC(=N6)c6cc(Oc7ccc(-c8[nH]c9cc(Cl)c(Cl)cc9[n+]8C)cc7)ccc65)=NC4=N3)cc2)[nH]c2cc(Cl)c(Cl)cc21.[I-].[I-].[I-].[I-] [Compound 208] | 9.31 | 2 | 8.79 | 1 | 20 | 78.4 | – | – | – | – |
| Tetrakis [4-(4-(5-bromo-1H-benzo[d]imidazol-2-yl)phenoxy phthalocyaninato] zinc(II) tetraiodide [Compound 217] | 9.15 | 1 | 8.78 | 5 | 5 | 40.1 | – | – | – | – |
| C[n+]1c(-c2ccc(Oc3ccc4c(c3)C3=Nc5c6ccc(Oc7ccc(-c8[nH]c9cc(Cl)c(Cl)cc9[n+]8C)cc7)cc6c6[n]5[Cu][n]5c(c7ccc(Oc8ccc(-c9[nH]c%10cc(Cl)c(Cl)cc%10[n+]9C)cc8)cc7c5=NC5=NC(=N6)c6cc(Oc7ccc(-c8[nH]c9cc(Cl)c(Cl)cc9[n+]8C)cc7)ccc65)=NC4=N3)cc2)[nH]c2cc(Cl)c(Cl)cc21.[I-].[I-].[I-].[I-] [Compound 209] | 9.31 | 10 | 8.79 | 2.5 | 20 | 80.4 | – | – | – | – |
